One assay has as its target Integrin alpha-4/beta-1 (Homo sapiens, UniProt P05556+P13612). The experiment in a line: In vitro inhibition of binding of integrin alpha4-beta1 to immobilized VCAM-1 expressed on endothelial cell surface. It counts as functional, cell-based.
Assay [1] in a line: In vitro inhibition of binding of integrin alpha4-beta7 to immobilized MAdCAM-1 expressed on epithelial cell surface. It counts as functional, cell-based.
Assay [2] in a line: Inhibition of integrin alpha4-beta7 binding to immobilized MAdCAM-1 (mucosal addressin cell adhesion molecule-1) of epithelial cells at 5 uM. It counts as functional.

Structures are written as SMILES.

Integrin alpha-4/beta-1, sequence (P05556 whole entry): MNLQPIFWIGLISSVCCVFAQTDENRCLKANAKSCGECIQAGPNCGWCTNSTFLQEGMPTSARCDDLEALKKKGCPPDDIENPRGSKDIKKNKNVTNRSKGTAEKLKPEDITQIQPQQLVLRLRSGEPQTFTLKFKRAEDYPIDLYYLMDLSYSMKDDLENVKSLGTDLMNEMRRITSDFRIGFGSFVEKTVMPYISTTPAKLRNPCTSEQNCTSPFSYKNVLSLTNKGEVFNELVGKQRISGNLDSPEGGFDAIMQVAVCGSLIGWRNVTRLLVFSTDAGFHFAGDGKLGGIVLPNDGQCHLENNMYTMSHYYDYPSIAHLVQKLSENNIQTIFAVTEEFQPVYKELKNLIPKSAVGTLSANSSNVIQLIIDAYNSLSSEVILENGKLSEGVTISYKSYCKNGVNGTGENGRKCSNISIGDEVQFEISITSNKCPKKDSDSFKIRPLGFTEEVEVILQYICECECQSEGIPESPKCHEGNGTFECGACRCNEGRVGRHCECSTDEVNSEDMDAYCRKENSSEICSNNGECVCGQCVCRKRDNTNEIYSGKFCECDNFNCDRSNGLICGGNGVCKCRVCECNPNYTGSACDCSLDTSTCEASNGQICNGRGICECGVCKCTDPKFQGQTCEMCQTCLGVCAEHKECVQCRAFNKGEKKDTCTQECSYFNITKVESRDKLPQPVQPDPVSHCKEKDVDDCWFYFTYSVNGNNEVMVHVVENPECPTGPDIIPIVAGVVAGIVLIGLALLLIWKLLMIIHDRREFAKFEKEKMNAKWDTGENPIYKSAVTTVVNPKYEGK
Integrin alpha-4/beta-1, sequence (P13612 whole entry): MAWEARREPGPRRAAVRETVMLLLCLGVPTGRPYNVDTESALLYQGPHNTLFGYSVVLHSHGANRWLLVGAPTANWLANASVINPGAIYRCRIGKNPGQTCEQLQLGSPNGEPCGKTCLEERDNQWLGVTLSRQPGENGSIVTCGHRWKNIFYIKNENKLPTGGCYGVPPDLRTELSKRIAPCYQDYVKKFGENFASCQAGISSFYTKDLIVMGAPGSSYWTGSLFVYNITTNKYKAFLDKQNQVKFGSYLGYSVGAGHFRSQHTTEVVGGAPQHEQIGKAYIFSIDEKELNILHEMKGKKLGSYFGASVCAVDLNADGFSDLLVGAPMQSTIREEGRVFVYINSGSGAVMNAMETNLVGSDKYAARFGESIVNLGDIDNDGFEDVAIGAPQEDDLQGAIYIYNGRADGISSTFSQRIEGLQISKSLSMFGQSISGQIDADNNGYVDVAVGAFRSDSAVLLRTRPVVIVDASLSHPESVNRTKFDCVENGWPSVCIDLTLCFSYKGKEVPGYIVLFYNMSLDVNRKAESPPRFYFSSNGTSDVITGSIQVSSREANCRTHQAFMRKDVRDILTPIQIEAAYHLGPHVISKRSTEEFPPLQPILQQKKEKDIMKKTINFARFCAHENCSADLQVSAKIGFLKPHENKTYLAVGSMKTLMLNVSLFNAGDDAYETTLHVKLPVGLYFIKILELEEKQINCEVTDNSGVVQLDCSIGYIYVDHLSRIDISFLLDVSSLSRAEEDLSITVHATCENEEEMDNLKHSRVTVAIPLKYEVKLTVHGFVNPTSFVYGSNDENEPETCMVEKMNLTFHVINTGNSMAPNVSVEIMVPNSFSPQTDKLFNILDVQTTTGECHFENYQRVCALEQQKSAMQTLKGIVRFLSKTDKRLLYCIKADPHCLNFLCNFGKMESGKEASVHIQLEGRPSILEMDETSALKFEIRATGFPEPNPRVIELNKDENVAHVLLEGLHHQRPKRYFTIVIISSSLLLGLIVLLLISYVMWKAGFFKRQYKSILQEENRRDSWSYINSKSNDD

For `O=C(Nc1ccc(C[C@H](NC(=O)[C@@H]2C3CCC(CC3)N2S(=O)(=O)c2cccc3cccnc23)C(=O)O)cc1)c1cc(Cl)nc(Cl)c1`, the IC50 on Integrin alpha-4/beta-1 stood at 150 nM; in assay [1] it was 151 nM.
As to `O=C(Nc1ccc(C[C@H](NC(=O)[C@@H]2C3CCC(CC3)N2S(=O)(=O)c2ccccc2)C(=O)O)cc1)c1ccncc1`, the 50% inhibitory concentration (IC50) at Integrin alpha-4/beta-1 is 36 nM; in assay [1] it was 175 nM.
The molecule `Cc1ccc(S(=O)(=O)N2C3CCC(CC3)C2C(=O)N[C@@H](Cc2ccc(NC(=O)Cc3c(Cl)cccc3Cl)cc2)C(=O)O)cc1` (some centres undefined) yielded an inhibition at 5 µM in assay [2] of 28%.
In assay [1], `COc1cccc(OC)c1-c1ccc(C[C@H](NC(=O)[C@@H]2C3CCC(CC3)N2S(=O)(=O)c2ccccc2)C(=O)O)cc1` yielded an IC50 of 90 nM.
As for `O=C(Nc1ccc(C[C@H](NC(=O)C2C3CCC(CC3)N2S(=O)(=O)c2c(Cl)cccc2Cl)C(=O)O)cc1)c1cc(Cl)nc(Cl)c1` (some centres undefined), the concentration for half-maximal inhibition (IC50) at Integrin alpha-4/beta-1 turned out to be 105 nM; in assay [1], 11 nM.
For `O=C(Nc1ccc(C[C@H](NC(=O)[C@@H]2C3CCC(CC3)N2S(=O)(=O)c2ccccc2)C(=O)O)cc1)c1c(Cl)cccc1Cl`, the concentration for half-maximal inhibition (IC50) at Integrin alpha-4/beta-1 is 19 nM; in assay [1] it was 94 nM.
On the same counts, the results for `O=C(Nc1ccc(C[C@H](NC(=O)[C@@H]2C3CCC(CC3)N2S(=O)(=O)c2ccccc2)C(=O)O)cc1)c1cc(Cl)nc(Cl)c1` are 12 nM and 13 nM.
On the same counts, the results for `O=C(Nc1ccc(C[C@H](NC(=O)[C@@H]2C3CCC(CC3)N2S(=O)(=O)c2cccc3ccncc23)C(=O)O)cc1)c1cc(Cl)nc(Cl)c1` are 12 nM and 22 nM.
Turning to `O=C(Nc1ccc(C[C@H](NC(=O)[C@H]2C3CCC(CC3)N2S(=O)(=O)c2ccccc2)C(=O)O)cc1)c1c(Cl)cccc1Cl`, the IC50 at Integrin alpha-4/beta-1 is 1600 nM.
The molecule `Cc1ccc(S(=O)(=O)N2C3CCC(CC3)C2C(=O)N[C@@H](Cc2ccc(NC(=O)c3c(Cl)cccc3Cl)cc2)C(=O)O)cc1` (some centres undefined) registered a 50% inhibitory concentration (IC50) in assay [1] of 320 nM.
In assay [1], `Cc1ccc(S(=O)(=O)N2C3CCC(CC3)C2C(=O)N[C@@H](Cc2ccc(NC(=O)c3c(Cl)cc(Cl)cc3Cl)cc2)C(=O)O)cc1` (some centres undefined) returned a 50% inhibitory concentration (IC50) of 430 nM. The IC50 values of the last two molecules are within 1.5-fold of each other.
With `COc1cccc(OC)c1-c1ccc(C[C@H](NC(=O)[C@@H]2C[C@@H](c3ccccc3)CN2S(=O)(=O)c2ccccc2)C(=O)O)cc1`, the IC50 is 30 nM on Integrin alpha-4/beta-1 and 119 nM in assay [1].
As to `Cc1ccc(S(=O)(=O)N2C3CCC(CC3)C2C(=O)N[C@@H](Cc2ccc(NC(=O)Nc3c(Cl)cccc3Cl)cc2)C(=O)O)cc1` (some centres undefined), the IC50 on Integrin alpha-4/beta-1 is 1600 nM. That is a single-digit micromolar value.
Take `Cc1ccc(S(=O)(=O)N2C3CCC(CC3)C2C(=O)N[C@@H](Cc2ccc(NC(=O)c3ccccc3)cc2)C(=O)O)cc1` (some centres undefined): the inhibition at 5 µM in assay [2] was 30%.
Regarding `O=C(Nc1ccc(C[C@H](NC(=O)C2C3CCC(CC3)N2S(=O)(=O)c2cc(Cl)c(Cl)s2)C(=O)O)cc1)c1cc(Cl)nc(Cl)c1` (some centres undefined), the results for the 50% inhibitory concentration (IC50) (on Integrin alpha-4/beta-1; in assay [1]) were 69 nM and 14 nM, respectively.
For `CC(=O)N1CSC[C@@H]1C(=O)N[C@@H](Cc1ccc(OCc2c(Cl)cccc2Cl)cc1)C(=O)O`, the values for the IC50 (on Integrin alpha-4/beta-1; in assay [1]) were 410 nM and 90 nM, respectively.
On the same counts, the results for `O=C(Nc1ccc(C[C@H](NC(=O)C2C3CCC(CC3)N2S(=O)(=O)c2ccc(Cl)s2)C(=O)O)cc1)c1cc(Cl)nc(Cl)c1` (some centres undefined) are 11 nM and 64 nM.
As to `O=C(Nc1ccc(C[C@H](NC(=O)[C@@H]2C3CCC(CC3)N2S(=O)(=O)c2cccs2)C(=O)O)cc1)c1c(Cl)cccc1Cl`, the concentration for half-maximal inhibition (IC50) on Integrin alpha-4/beta-1 worked out at 30 nM; in assay [1], 62 nM.
On the same counts, the results for `O=C(Nc1ccc(C[C@H](NC(=O)C2C3CCC(CC3)N2S(=O)(=O)c2ccccc2C(F)(F)F)C(=O)O)cc1)c1cc(Cl)nc(Cl)c1` (some centres undefined) are 81 nM and 102 nM.
On the same counts, the results for `O=C(Nc1ccc(C[C@H](NC(=O)[C@@H]2C3CCC(CC3)N2S(=O)(=O)c2cccs2)C(=O)O)cc1)c1cc(Cl)nc(Cl)c1` are 5 nM and 32 nM.
In turn, `O=C(O)[C@H](Cc1ccc(N2C(=O)c3ccccc3C2=O)cc1)NC(=O)[C@@H]1C2CCC(CC2)N1S(=O)(=O)c1ccccc1` came in with an IC50 in assay [1] of 312 nM.
